These are literature values, as cited in patent US10441535B2, “Nutraceutical confectionary composition containing caffeine and L-theanine” (NeuroGum, LLC, priority 2015, dated 2019).

The conditions of this data set: human, in vivo.

On to N-Ethyl-L-glutamine [L-theanine], for which the elimination half-life was 1 to 2 h.
